# Source: ChEMBL document CHEMBL1135559, “Vacuolar-type H(+)-ATPase inhibitory activity of synthetic analogues of the concanamycins: is the hydrogen bond network involving the lactone carbonyl, the hemiacetal hydroxy group, and the C-19 hydroxy group essential for the biological activity of the concanamycins?” (Bioorg Med Chem Lett, 2002)
# How the values were obtained:
# Format in all cases: functional, cell-based
# Conditions in all cases: Homo sapiens
# A-431 [1] = assay: Cell viability in A431 cells unstimulated with EGF was tested when incubated with concentration at 2 uM after 48 h; Did not affect the viability
# A-431 [2] = assay: Cell viability in A431 cells when stimulated with EGF was tested when incubated with concentration 2 uM after 48 h; Cell death
# A-431 [3] = assay: Cell viability in A431 cells unstimulated with EGF was tested when incubated with concentration up to 10 uM after 48 h; Did not affect the viability
# A-431 [4] = assay: Cell viability in A431 cells when stimulated with EGF was tested when incubated with concentration 0.01 uM after 48 h; Cell death
# A-431 [5] = assay: Cell viability in A431 cells unstimulated with EGF was tested when incubated with concentration in the range of 1-10 uM after 48 h; Did not affect the viability
# A-431 [6] = assay: Cell viability in A431 cells when stimulated with EGF was tested when incubated with concentration in the range of 1-10 uM of the compound after 48 h; Cell death
# A-431 [7] = assay: Cell viability in A431 cells when stimulated with EGF was tested when incubated with concentration up to 10 uM after 48 h; Did not affect the viability
smiles,measurement,setting,value
C/C=C/[C@H]1O[C@@](O)([C@@H](C)[C@H](O)[C@H](C)[C@H]2OC(=O)/C(OC)=C/C(C)=C/[C@@H](C)[C@@H](O)[C@@H](CC)[C@@H](O)[C@H](C)C/C(C)=C/C=C/[C@@H]2OC)C[C@@H](O)[C@@H]1C,Activity,A-431 [1],No effect
same,Activity,A-431 [2],No effect
CC[C@@H]([C@@H](O)[C@H](C)C/C(C)=C/C=C/[C@H](OC)[C@H](O)[C@@H](C)COC(c1ccccc1)(c1ccccc1)c1ccc(OC)cc1)[C@H](O)[C@H](C)/C=C(C)/C=C(\OC)C(=O)OC,Activity,A-431 [3],No effect
same,Activity,A-431 [4],No effect
CC[C@H]1[C@@H](O)[C@H](C)C/C(C)=C/C=C/[C@H](OC)[C@@H]([C@@H](C)CO)OC(=O)/C(OC)=C/C(C)=C/[C@@H](C)[C@H]1O,Activity,A-431 [5],No effect
same,Activity,A-431 [6],No effect
CC[C@H]1[C@@H](O)[C@H](C)C/C(C)=C/C=C/[C@H](OC)[C@@H]([C@@H](C)COC(c2ccccc2)(c2ccccc2)c2ccc(OC)cc2)OC(=O)/C(OC)=C/C(C)=C/[C@@H](C)[C@H]1O,Activity,A-431 [3],No effect
same,Activity,A-431 [7],No effect
